Columns and labels:
[1] = system: PyMT syngeneic breast cancer implant mouse model; experiment: PyMT syngeneic breast cancer model primary tumor growth; format: in vivo; conditions: Compound 1 oral twice daily, paclitaxel IV every five days, 21 days
Experimental: PyMT Syngeneic Breast Cancer Model Primary Tumor Growth
Briefly, 1×10^6 cells (dissociated from PyMT tumor fragments) in 0.1 mL total volume were implanted into the fourth mammary fat pad on the left side of female mice (FVB/NJ, JAXWEST:RB05 mice from Jackson Labs). A total of 10 mice were implanted in each group. Molecular Imaging, Inc.'s Animal Care and Use Committee approved all the experimental protocols and conducted experiments in compliance with all the laws, regulations and guidelines of the National Institutes of Health (NIH). […] Animals were dosed for 21 days. Body weights and tumor measurements were recorded three times weekly. Tumor burden (mg) was estimated from caliper measurements by the formula for the volume of a prolate ellipsoid assuming unit density as: Tumor burden (mg)=(L×W^2)/2, where L and W are the respective orthogonal tumor length and width measurements (mm).

[2] = system: PyMT syngeneic breast cancer implant mouse model; experiment: PyMT syngeneic breast cancer model primary tumor macrophage accumulation (F4/80 staining); format: in vivo; conditions: Compound 1 oral twice daily, paclitaxel IV every five days, 21 days
Experimental: PyMT Syngeneic Breast Cancer Model Primary Tumor Macrophage Accumulation
(§4) Briefly, 1×10^6 cells (dissociated from PyMT tumor fragments) in 0.1 mL total volume were implanted into the fourth mammary fat pad on the left side of female mice (FVB/NJ, JAXWEST:RB05 mice from Jackson Labs). A total of 10 mice were implanted in each group. […] Animals were dosed for 21 days. Body weights and tumor measurements were recorded three times weekly.
At the end of study, tumors were excised and placed in formalin. Formalin-fixed tumor samples were then placed in paraffin blocks. Formalin fixed-paraffin embedded tissue slides were deparaffinized with xylene and hydrated to distilled water through a graduated series of alcohol rinses. Antigenic retrieval was performed using Dako's PT Link Module with a Tris/EDTA buffer target retrieval solution at 95° C. for 20 minutes. Once the slides cooled down, they were loaded onto a Dako AutostainerPlusLink for immunohistochemical staining at room temperature with F4/80 and CD31 antibodies, to stain for macrophages and endothelial cells, respectively. Endogenous peroxidase and alkaline phosphatase activity in the tissues was quenched with a Dual Endogenous Enzyme Block solution (Dako, S2003) for 5 minutes. […] Slides were scored for F4/80 staining using a scale of 0, no visible staining; 1, weak staining; 2, moderate staining; 3 strong staining.

[3] = system: PyMT syngeneic breast cancer implant mouse model; experiment: PyMT syngeneic breast cancer model primary tumor TIE2 cell accumulation (TIE2 staining); format: in vivo; conditions: Compound 1 oral twice daily, paclitaxel IV every five days, 21 days
Experimental: as §4
At the end of study, tumors were excised and placed in formalin. Formalin-fixed tumor samples were then placed in paraffin blocks. The experimental formalin fixed-paraffin embedded tissue slides were deparaffinized with xylene and hydrated to distilled water through a graduated series of alcohol rinses. Antigenic retrieval was performed using Dako's PT Link Module with a Citrate pH 6 buffer target retrieval solution at 95° C. for 20 minutes. Once the slides cooled down, they were loaded onto a Dako AutostainerPlusLink for immunohistochemical staining at room temperature with both TIE2 and CD31 antibodies. Endogenous peroxidase and alkaline phosphatase activity in the tissues was quenched with a Dual Endogenous Enzyme Block solution (Dako, S2003) for 5 minutes. Non-specific protein binding was blocked with serum free Protein Block (Dako, X0909) for 5 minutes. […] Slides were scored for TIE2 staining using a scale of 0, no visible staining; 1, weak staining; 2, moderate staining; 3 strong staining.

[4] = system: PyMT syngeneic breast cancer implant mouse model; experiment: PyMT syngeneic breast cancer model lung metastasis evaluation, Compound 1 dosed intermittently with paclitaxel; format: in vivo; conditions: Compound 1 oral twice weekly, paclitaxel IV every five days, 12 days
Experimental: (§1) PyMT Syngeneic Breast Cancer Model Lung Metastasis Evaluation
(§2) Briefly, 1×10^6 cells (dissociated from PyMT tumor fragments and stored frozen in cell-freezing medium) in 0.1 mL total volume were implanted into the fourth mammary fat pad on the left side of female mice (FVB/NJ, JAXWEST:RB05 mice from Jackson Labs). A total of three mice were implanted in each group. Molecular Imaging, Inc.'s Animal Care and Use Committee approved all the experimental protocols and conducted experiments in compliance with all the laws, regulations and guidelines of the National Institutes of Health (NIH). […] Animals were dosed for 12 days. Body weights and tumor measurements were recorded three times weekly.
(§3) At the end of study, lung tissues were excised and placed in formalin. Formalin-fixed lung samples were then placed in paraffin blocks. Each lung block had three slides with two levels per slide cut and stained with Hematoxylin and Eosin. Metastatic lung nodules were counted via microscopy.

[5] = biological target: T1, TIE2 (Homo sapiens, UniProt Q02763); experiment: TIE2-transfected CHO K1 phospho-TIE2 Western blot composition washout assay; format: cell-based; conditions: incubated 2 hours at 0.1 μM-1 μM prior to being washed out
T1 construct: V5; expressed in transfected cells; host or cells: CHO-K1 (ATCC CCL-61), transient transfection with Lipofectamine LTX
Experimental: CHO-K1 cells (catalog #CCL-61) were obtained from the American Type Culture Collection (ATCC, Manassas, Va.). Briefly, cells were grown in F12K medium supplemented with 10% characterized fetal bovine serum (Invitrogen, Carlsbad, Calif.), 100 units/mL penicillin G, 100 μg/ml streptomycin, and 0.29 mg/mL L-glutamine (Invitrogen, Carlsbad, Calif.) at 37 degrees Celsius, 5% CO2, and 95% humidity. Cells were allowed to expand until reaching 70-95% confluence at which point they were subcultured or harvested for assay use.
TIE2-Transfected CHO K1 Phospho-TIE2 Western Blot Composition Washout Assay
CHO K1 cells (1×10^5 cells/well) were added to a 24-well tissue-culture treated plate in 1 mL of RPMI1640 medium supplemented with 10% characterized fetal bovine serum and 1× non-essential amino acids (Invitrogen, Carlsbad, Calif.). Cells were then incubated overnight at 37 degrees Celsius, 5% CO2, and 95% humidity. Medium was aspirated, and 0.5 mL of medium was added to each well. […] Fluorescence was detected using a Storm 840 phosphorimager (GE Healthcare, Piscataway, N.J.) in fluorescence mode. […] The 160 kDa phospho-TIE2 and total TIE2 bands were quantified using ImageQuant software (GE Healthcare, Piscataway, N.J.). […]

[6] = system: HMVEC capillary tube formation; experiment: HMVEC capillary tube formation assay; format: cell-based; conditions: Homo sapiens, ANG1-stimulated, 18 hours, read-out: IC50 value for inhibition of ANG1-stimulated HMVEC capillary tube formation
Experimental: HMVEC (Human microvascular endothelial cells; Catalog #PCS-110-010) cells were obtained from the American Type Culture Collection (ATCC, Manassas, Va.). Briefly, cells were grown in EGM-2 MV (Lonza, Walkersville, Md.) at 37 degrees Celsius, 5% CO2, and 95% humidity. Cells were allowed to expand until reaching 90-95% saturation at which point they were subcultured or harvested for assay use.
HMVEC Capillary Tube Formation Assay
HMVEC cells (1.5×10^4 cells/well) mixed with test composition or DMSO control and the appropriate growth factor (ANG1 or ANG2) or control were added to a 96-well tissue-culture treated plate coated with growth-factor reduced Matrigel in 0.1 mL of EBM-2 basal medium (Lonza, Walkersville, Md.). Cells were then incubated for 18 hours at 37 degrees Celsius, 5% CO2, and 95% humidity. Media was then gently aspirated and wells were gently washed with 0.1 mL EBM-2 basal medium. Media was again aspirated and 1 μM Calcein AM solution (Invitrogen, Carlsbad, Calif.) in basal medium was added to each well to fluorescently label live cells. Cells were then incubated for 30 minutes at 37 degrees Celsius, 5% CO2, and 95% humidity. Media was aspirated and wells were gently washed with phosphate-buffered saline twice. […] Data was analyzed using Prism software (GraphPad Software, San Diego, Calif.) to calculate IC50 values.

[7] = system: PyMT syngeneic breast cancer implant mouse model; experiment: PyMT syngeneic breast cancer model lung metastasis evaluation, Compound 1 dosed intermittently with eribulin; format: in vivo; conditions: Compound 1 oral twice weekly, eribulin IV three times weekly, 12 days
Experimental: as §1, §2, §3

[8] = system: PyMT syngeneic breast cancer implant mouse model; experiment: PyMT syngeneic breast cancer model survival evaluation; format: in vivo; conditions: Compound 1 oral once or twice weekly, eribulin at 0.1 mg/kg IV three times weekly; tumors resected three days after treatment began
Experimental: PyMT Syngeneic Breast Cancer Model Survival Evaluation
Briefly, 1×10^6 cells (dissociated from PyMT tumor fragments and stored frozen in cell-freezing medium) in 0.1 mL total volume were implanted into the fourth mammary fat pad on the left side of female mice (FVB/NJ, JAXWEST:RB05 mice from Jackson Labs). A total of ten mice were implanted in each group. Molecular Imaging, Inc.'s Animal Care and Use Committee approved all the experimental protocols and conducted experiments in compliance with all the laws, regulations and guidelines of the National Institutes of Health (NIH). […] Tumors were then resected three days after treatment began. Animals were then dosed for the duration of the survival experiment. Body weights and tumor measurements were recorded three times weekly.

T1 sequence (Q02763 23-1124): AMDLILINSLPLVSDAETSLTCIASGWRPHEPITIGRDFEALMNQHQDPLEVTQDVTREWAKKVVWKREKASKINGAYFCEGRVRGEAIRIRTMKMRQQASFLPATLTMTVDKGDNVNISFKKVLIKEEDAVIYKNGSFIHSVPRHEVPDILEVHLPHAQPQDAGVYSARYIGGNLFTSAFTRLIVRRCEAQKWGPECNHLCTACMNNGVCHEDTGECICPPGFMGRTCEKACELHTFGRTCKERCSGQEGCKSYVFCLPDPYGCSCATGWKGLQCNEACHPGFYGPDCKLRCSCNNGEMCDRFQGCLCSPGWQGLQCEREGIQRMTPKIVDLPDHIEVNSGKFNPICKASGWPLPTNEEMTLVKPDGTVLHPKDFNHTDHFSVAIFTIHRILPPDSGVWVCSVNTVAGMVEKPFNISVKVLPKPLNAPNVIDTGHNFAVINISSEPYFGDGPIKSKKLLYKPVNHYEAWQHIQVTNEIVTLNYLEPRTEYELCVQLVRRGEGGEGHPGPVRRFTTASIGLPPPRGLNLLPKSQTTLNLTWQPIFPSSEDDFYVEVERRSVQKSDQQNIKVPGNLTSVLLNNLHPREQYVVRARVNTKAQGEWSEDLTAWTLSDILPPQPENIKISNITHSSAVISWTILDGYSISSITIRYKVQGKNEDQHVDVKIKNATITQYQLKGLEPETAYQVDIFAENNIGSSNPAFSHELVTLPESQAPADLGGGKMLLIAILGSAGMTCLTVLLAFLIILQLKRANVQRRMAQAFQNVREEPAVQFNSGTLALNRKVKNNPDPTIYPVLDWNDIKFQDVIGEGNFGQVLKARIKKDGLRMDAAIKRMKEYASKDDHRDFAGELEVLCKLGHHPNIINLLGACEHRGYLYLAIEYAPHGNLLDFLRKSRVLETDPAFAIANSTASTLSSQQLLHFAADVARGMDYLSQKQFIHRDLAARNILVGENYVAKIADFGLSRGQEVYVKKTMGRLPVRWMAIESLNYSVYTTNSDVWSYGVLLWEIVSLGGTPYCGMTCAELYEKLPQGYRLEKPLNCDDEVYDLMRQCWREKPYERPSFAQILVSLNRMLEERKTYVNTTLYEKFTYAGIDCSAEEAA

SMILES | primary tumor growth (tumor burden), FIG. 1 [1] | macrophage accumulation at the primary tumor (F4/80 staining), FIG. 2 [2] | TIE2-expressing cell accumulation at the primary tumor (TIE2 staining), FIG. 3 [3] | lung metastasis (metastatic lung nodules), FIG. 5 [4] | duration of >50% inhibition of phospho-TIE2 levels after washout [5] [h] | inhibition of phospho-TIE2 levels after washout ([5]; maintained for >24 hours) [%] | IC50 [6] [nM] | lung metastasis (metastatic lung nodules), FIG. 6 [7] | survival, FIG. 7 [8]
CC(=O)O[C@H]1C(=O)[C@@]2(C)[C@H]([C@H](OC(=O)c3ccccc3)[C@]3(O)C[C@H](OC(=O)[C@H](O)[C@@H](NC(=O)c4ccccc4)c4ccccc4)C(C)=C1C3(C)C)[C@]1(OC(C)=O)CO[C@@H]1C[C@@H]2O [paclitaxel, reference compound] | tumor growth inhibition | did not decrease macrophage accumulation | did not decrease TIE2-expressing cell accumulation | decrease in lung metastasis |  |  |  |  | 
CNC(=O)c1cc(Oc2ccc(NC(=O)Nc3cc(C(C)(C)C)nn3-c3ccc4ncccc4c3)c(F)c2)ccn1.Cc1ccc(S(=O)(=O)O)cc1 [Compound 1, 1-(3-tert-butyl-1-(quinolin-6-yl)-1H-pyrazol-5-yl)-3-(2-fluoro-4-(2-(methylcarbamoyl)pyridin-4-yloxy)phenyl)urea para-toluene sulfonic acid salt] | tumor growth inhibition | decrease in macrophage accumulation | decrease in TIE2-expressing cell accumulation |  | > 24 | > 50 | 6.9 |  | 
C=C1C[C@@H]2CC[C@@]34C[C@H]5O[C@H]6[C@@H](O3)[C@H]3O[C@H](CC[C@@H]3O[C@H]6[C@H]5O4)CC(=O)C[C@@H]3[C@@H](OC)[C@@H](C[C@H](O)CN)O[C@H]3C[C@H]3O[C@@H](CC[C@@H]1O2)C[C@@H](C)C3=C [eribulin] |  |  |  |  |  |  |  | decrease (or increase at low dose) in lung metastasis | no increase in survival
